Data from patent US9382254B2, “Compounds and pharmaceutical compositions thereof for the treatment of cystic fibrosis” (Galapagos NV, priority 2013, dated 2016).
pEC50: −log10 of the molar value. Where two headings read alike, the source gives them in different places.

Assays:
Type in all cases: cell-based
CFTR-G178R = target: T1, CFTR-G178R (Homo sapiens, UniProt P13569, G178R); test: YFP-halide influx assay for the CFTR-G178R
T1 construct: expressed in transfected cells
Description: (§1) The YFP halide influx assay measures the functionality of the cystic fibrosis Transmembrane Conductance regulator (CFTR) channels. The assay is used to evaluate the capacity of compounds to increase the channel opening of existing mutant CFTR channels in the membrane. It makes use of the observation that the yellow fluorescent protein (YFP) variant YFP H148Q, I152L, […] has its fluorescence substantially quenched by halide ions like Cl^− and I^−. (Galietta, Haggie, & Verkman, 2001)
(§2) For this purpose, HEK293-cells are seeded in 96 well plates. During seeding, the cells are reverse-transfected with plasmid vectors that direct the expression of the CFTR G551D mutant and of the YFP reporter. Cells are incubated at 37° C., 5% CO2 for 24 hours so as to allow for sufficient expression of the CFTR protein.
(§3) The I^−-induced quenching of fluorescence is recorded immediately after injection of I^− for 7 seconds. The capacity of a compound to increase the channel opening is directly correlated with the decrease in fluorescence, and is expressed as (1-(fluorescence after 7 seconds (F)/fluorescence before injection (F0))) and an EC50 can be derived from a (1-F/F0) vs compound concentration plot.
(§4) Similar YHA assays were developed for other channel gating defective or channel conductance defective CFTR mutants to determine effect of compound on channel activity. Examples of mutants are G178R, G1349D, S549N, R117H, R334W. This assay is also used for additional class I CFTR mutants, including G542X, W1282X; class II mutants including N1303K, and for class III mutants including S1251N.

CFTR ΔF508 mutant = target: T2, CFTR ΔF508 mutant (Homo sapiens, UniProt P13569, DEL508-508); test: YFP-halide influx assay for the CFTR-ΔF508 mutation (384 well, FDSS/μCell); conditions: CFBE41o- cells, CFTR-ΔF508, 1×D-PBS, fluorescence after 36 seconds
T2 construct: expressed in transfected cells; host or cells: CFBE41o- (adenoviral transduction)
T2 sequence (P13569 with tags, fused parts or gaps DEL508-508): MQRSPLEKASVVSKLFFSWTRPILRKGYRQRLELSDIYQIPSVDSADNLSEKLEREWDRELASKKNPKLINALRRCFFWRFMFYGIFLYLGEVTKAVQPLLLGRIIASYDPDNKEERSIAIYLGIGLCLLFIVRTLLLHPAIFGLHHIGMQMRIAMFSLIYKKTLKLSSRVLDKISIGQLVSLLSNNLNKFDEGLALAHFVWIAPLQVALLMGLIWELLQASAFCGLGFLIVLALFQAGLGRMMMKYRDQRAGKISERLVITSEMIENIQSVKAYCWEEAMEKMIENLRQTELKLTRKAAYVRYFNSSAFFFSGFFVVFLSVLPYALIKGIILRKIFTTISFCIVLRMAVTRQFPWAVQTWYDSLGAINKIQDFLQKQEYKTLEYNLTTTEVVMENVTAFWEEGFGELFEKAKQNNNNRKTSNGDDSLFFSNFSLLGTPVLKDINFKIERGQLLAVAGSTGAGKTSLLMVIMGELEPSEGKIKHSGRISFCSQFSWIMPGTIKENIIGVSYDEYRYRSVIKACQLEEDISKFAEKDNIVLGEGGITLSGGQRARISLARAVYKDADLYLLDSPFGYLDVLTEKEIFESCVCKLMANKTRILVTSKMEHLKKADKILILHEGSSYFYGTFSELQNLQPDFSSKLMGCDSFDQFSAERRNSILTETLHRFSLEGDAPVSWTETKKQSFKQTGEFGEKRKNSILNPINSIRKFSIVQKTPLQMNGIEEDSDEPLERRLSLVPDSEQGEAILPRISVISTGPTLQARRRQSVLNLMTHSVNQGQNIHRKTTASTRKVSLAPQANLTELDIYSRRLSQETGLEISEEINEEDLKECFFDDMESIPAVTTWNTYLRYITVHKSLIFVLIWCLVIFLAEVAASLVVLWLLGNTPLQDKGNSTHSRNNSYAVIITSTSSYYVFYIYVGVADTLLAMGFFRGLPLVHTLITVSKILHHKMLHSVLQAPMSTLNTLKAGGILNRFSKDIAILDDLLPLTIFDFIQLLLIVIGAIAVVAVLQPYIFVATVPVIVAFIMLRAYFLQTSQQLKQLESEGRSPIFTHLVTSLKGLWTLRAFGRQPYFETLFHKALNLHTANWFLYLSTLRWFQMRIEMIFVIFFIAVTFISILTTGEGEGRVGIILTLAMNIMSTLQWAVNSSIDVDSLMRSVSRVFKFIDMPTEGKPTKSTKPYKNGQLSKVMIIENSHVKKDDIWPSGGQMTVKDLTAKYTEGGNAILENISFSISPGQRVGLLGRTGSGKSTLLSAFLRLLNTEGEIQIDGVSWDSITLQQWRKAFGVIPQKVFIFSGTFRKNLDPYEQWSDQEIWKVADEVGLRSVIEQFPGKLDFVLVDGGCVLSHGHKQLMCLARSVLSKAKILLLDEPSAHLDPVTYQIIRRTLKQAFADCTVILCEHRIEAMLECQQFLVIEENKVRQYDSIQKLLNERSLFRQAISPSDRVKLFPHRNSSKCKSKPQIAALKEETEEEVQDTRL
In short: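 Potentiator read-out as 1−F/F0, F taken 36 s after iodide addition, EC50 fitted against compound concentration. Cells: CFBE41o- expressing ΔF508 CFTR plus halide-sensitive YFP via adenovirus, rescued by 27 °C for 24 h or 24 h modulator at 37 °C.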

CFTR-G1349D = target: T3, CFTR-G1349D (Homo sapiens, UniProt P13569, G1349D); test: YFP-halide influx assay for the CFTR-G1349D
T3 construct: expressed in transfected cells
T3 sequence (P13569 whole entry G1349D): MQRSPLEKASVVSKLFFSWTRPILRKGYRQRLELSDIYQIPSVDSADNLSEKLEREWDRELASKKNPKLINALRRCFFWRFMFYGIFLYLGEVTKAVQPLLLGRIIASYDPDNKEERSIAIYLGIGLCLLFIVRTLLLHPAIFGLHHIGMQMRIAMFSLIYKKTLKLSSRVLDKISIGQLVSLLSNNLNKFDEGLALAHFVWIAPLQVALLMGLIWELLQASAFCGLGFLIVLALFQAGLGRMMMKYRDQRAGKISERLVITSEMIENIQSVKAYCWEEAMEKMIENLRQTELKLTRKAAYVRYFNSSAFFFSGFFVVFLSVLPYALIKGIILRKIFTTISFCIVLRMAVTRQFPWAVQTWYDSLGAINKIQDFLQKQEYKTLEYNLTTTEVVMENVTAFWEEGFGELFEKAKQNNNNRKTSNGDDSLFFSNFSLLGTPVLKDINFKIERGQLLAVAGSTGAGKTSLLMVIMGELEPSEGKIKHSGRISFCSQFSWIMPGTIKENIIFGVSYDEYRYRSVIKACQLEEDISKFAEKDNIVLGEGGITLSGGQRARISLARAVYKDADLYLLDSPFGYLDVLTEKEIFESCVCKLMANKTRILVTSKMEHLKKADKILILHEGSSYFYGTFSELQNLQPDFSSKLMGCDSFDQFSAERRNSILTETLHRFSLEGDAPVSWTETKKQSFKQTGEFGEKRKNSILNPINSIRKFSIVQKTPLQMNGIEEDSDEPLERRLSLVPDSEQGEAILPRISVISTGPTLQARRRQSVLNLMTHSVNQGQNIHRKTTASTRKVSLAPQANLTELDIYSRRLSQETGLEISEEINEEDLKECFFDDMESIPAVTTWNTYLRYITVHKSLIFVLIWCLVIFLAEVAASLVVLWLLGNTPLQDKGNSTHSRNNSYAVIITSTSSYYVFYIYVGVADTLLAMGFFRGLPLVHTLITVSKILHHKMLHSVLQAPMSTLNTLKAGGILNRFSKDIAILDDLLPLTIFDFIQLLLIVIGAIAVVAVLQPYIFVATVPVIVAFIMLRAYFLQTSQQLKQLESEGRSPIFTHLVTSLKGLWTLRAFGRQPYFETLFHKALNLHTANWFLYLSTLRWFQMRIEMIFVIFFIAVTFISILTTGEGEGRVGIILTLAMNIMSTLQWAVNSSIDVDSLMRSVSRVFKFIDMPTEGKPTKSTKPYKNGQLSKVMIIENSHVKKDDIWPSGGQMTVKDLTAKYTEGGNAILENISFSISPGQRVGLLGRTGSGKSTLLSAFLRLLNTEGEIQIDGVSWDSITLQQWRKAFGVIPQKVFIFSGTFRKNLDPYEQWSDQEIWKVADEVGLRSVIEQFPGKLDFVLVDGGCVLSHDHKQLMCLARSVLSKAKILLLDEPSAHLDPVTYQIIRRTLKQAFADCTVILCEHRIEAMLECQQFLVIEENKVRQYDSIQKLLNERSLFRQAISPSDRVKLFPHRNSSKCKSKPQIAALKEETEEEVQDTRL
Description: as §1, §2, §3, §4

CFTR-R117H = target: T4, CFTR-R117H (Homo sapiens, UniProt P13569, R117H); test: YFP-halide influx assay for the CFTR-R117H
T4 construct: expressed in transfected cells
T4 sequence (P13569 whole entry R117H): as the sequence (P13569 whole entry G1349D) above, with R117H, D1349G counted along it
Description: as §1, §2, §3, §4

CFTR G551D mutant = target: T5, CFTR G551D mutant (Homo sapiens, UniProt P13569, G551D); test: YFP-halide influx assay for the CFTR-G551D mutation; conditions: HEK293 cells, forskolin 10.67 μM
T5 construct: expressed in transfected cells; host or cells: HEK293 (reverse transfection with plasmid)
T5 sequence (P13569 whole entry G551D): as the sequence (P13569 whole entry G1349D) above, with G551D, D1349G counted along it
In short: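 Channel opening potentiation measured as 1−F/F0, where F is YFP fluorescence 7 s after iodide injection and F0 before; EC50 taken from concentration plot. Cells: HEK293 transiently expressing CFTR G551D plus halide-sensitive YFP (H148Q, I152L, F47L), 24 h at 37 °C, 5% CO2.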

CFTR-S549N = target: T6, CFTR-S549N (Homo sapiens, UniProt P13569, S549N); test: YFP-halide influx assay for the CFTR-S549N
T6 construct: expressed in transfected cells
T6 sequence (P13569 whole entry S549N): as the sequence (P13569 whole entry G1349D) above, with S549N, D1349G counted along it
Description: as §1, §2, §3, §4

T1 sequence (P13569 whole entry G178R): as the sequence (P13569 whole entry G1349D) above, with G178R, D1349G counted along it

| SMILES | pEC50 (CFTR-G178R) | pEC50 (CFTR ΔF508 mutant) | pEC50 (CFTR-G1349D) | pEC50 (CFTR-R117H) | pEC50 (CFTR G551D mutant) | pEC50 (CFTR-S549N) | pEC50 (CFTR G551D mutant; class symbol) | pEC50 (CFTR-S549N; class symbol) |
| --- | --- | --- | --- | --- | --- | --- | --- | --- |
| CC(C)(O)C(=O)Nc1sc(S(=O)(=O)c2ccc(OC(F)F)cc2)cc1C(N)=O [Compound 380, 5-[4-(difluoromethoxy)phenyl] sulfonyl-2-[(2-hydroxy-2-methyl-propanoyl)amino] thiophene-3-carboxamide] | 6.97 | 7.76 | 6.56 | 6.84 | 6.35 | 6.41 |  |  |
| CC(CO)C(=O)Nc1sc(S(=O)(=O)c2ccc(Cl)cc2OC(F)(F)F)cc1C(N)=O (stereo not drawn) [Compound 387, 5-[4-chloro-2-(trifluoromethoxy)phenyl] sulfonyl-2-[(3-hydroxy-2-methyl-propanoyl)amino] thiophene-3-carboxamide] | 7.06 | 7.65 | 7.08 | 7.31 | 5.85 | 6.68 |  |  |
| CC(C)(O)C(=O)Nc1sc(S(=O)(=O)c2ccc(C(F)(F)F)nc2)cc1C(N)=O [Compound 389, 2-[(2-hydroxy-2-methyl-propanoyl)amino]-5-[[6-(trifluoromethyl)-3-pyridyl]sulfonyl] thiophene-3-carboxamide] | 7.04 | 7.33 | 6.69 | 6.61 | 6.09 | 6.27 |  |  |
| CC(C)(O)C(=O)Nc1sc(S(=O)(=O)c2cc(C(F)(F)F)ncc2Cl)cc1C(N)=O [Compound 390, 5-[[5-chloro-2-(trifluoromethyl)-4-pyridyl]sulfonyl]-2-[(2-hydroxy-2-methyl-propanoyl)amino] thiophene-3-carboxamide] | 6.99 | 7.36 | 6.53 | 6.66 | 6.18 | 6.49 |  |  |
| CC(C)(O)C(=O)Nc1sc(S(=O)(=O)c2cc(Cl)ccc2OC(F)(F)F)cc1C(N)=O [Compound 391, 5-[5-chloro-2-(trifluoromethoxy)phenyl] sulfonyl-2-[(2-hydroxy-2-methyl-propanoyl)amino] thiophene-3-carboxamide] | 7.89 | 7.83 | 7.59 | 7.47 | 7.27 | 7.38 |  |  |
| CC(C)(O)C(=O)Nc1sc(S(=O)(=O)c2ccc(C#N)cc2OC(F)(F)F)cc1C(N)=O [Compound 393, 5-[4-cyano-2-(trifluoromethoxy)phenyl] sulfonyl-2-[(2-hydroxy-2-methyl-propanoyl)amino] thiophene-3-carboxamide] | 7.25 | 7.83 | 6.80 | 7.32 | 6.18 | 6.59 |  |  |
| CC(C)(O)C(=O)Nc1sc(S(=O)(=O)c2cnc(C(F)(F)F)nc2)cc1C(N)=O [Compound 394, 2-[(2-hydroxy-2-methyl-propanoyl)amino]-5-[2-(trifluoromethyl)pyrimidin-5-yl]sulfonyl-thiophene-3-carboxamide] | 5.48 | 6.45 | 5.48 | 5.48 |  |  | < 6.00 | < 6.00 |
| CC(C)(O)C(=O)Nc1sc(S(=O)(=O)c2cnc(C(F)(F)F)cn2)cc1C(N)=O [Compound 397, 2-[(2-hydroxy-2-methyl-propanoyl)amino]-5-[5-(trifluoromethyl)pyrazin-2-yl]sulfonyl-thiophene-3-carboxamide] | 6.38 | 7.51 | 6.38 | 6.59 | 5.75 | 6.17 |  |  |
| CC(C)(O)C(=O)Nc1sc(S(=O)(=O)c2cc(Cl)ccc2OC(F)F)cc1C(N)=O [Compound 401, 5-[5-chloro-2-(difluoromethoxy)phenyl] sulfonyl-2-[(2-hydroxy-2-methyl-propanoyl)amino] thiophene-3-carboxamide] | 6.98 | 8.19 | 7.31 | 7.06 | 6.90 | 7.04 |  |  |
| COc1cc(S(=O)(=O)c2cc(C(N)=O)c(NC(=O)C(C)(C)O)s2)c(OC(F)F)cc1F [Compound 402, 5-[2-(difluoromethoxy)-4-fluoro-5-methoxy-phenyl] sulfonyl-2-[(2-hydroxy-2-methyl-propanoyl)amino] thiophene-3-carboxamide] | 6.61 | 7.59 | 5.48 | 6.56 | 5.85 | 5.99 |  |  |
| CC(C)(O)C(=O)Nc1sc(S(=O)(=O)c2cc(F)c(F)cc2OC(F)F)cc1C(N)=O [Compound 404, 5-[2-(difluoromethoxy)-4,5-difluoro-phenyl] sulfonyl-2-[(2-hydroxy-2-methyl-propanoyl)amino] thiophene-3-carboxamide] | 6.90 | 7.85 | 5.83 | 6.55 | 6.26 | 5.74 |  |  |
| CC(C)(O)C(=O)Nc1sc(S(=O)(=O)c2c(F)cc(F)cc2OC(F)F)cc1C(N)=O [Compound 405, 5-[2-(difluoromethoxy)-4,6-difluoro-phenyl]sulfonyl-2-[(2-hydroxy-2-methyl-propanoyl)amino] thiophene-3-carboxamide] | < 6.00 | 7.71 | 5.48 | 6.81 | 5.34 | 5.86 |  |  |
| CC(C)(O)C(=O)Nc1sc(S(=O)(=O)c2ccc(C#N)cc2C(F)(F)F)cc1C(N)=O [Compound 407, 5-[4-cyano-2-(trifluoromethyl)phenyl] sulfonyl-2-[(2-hydroxy-2-methyl-propanoyl)amino] thiophene-3-carboxamide] | 5.82 | 7.30 | 5.48 | 6.58 | 5.48 | 5.54 |  |  |
| CC(C)(O)C(=O)Nc1sc(S(=O)(=O)c2cccc(C(F)(F)F)c2)cc1C(N)=O [Compound 408, 2-[(2-hydroxy-2-methyl-propanoyl)amino]-5-[3-(trifluoromethyl)phenyl]sulfonyl-thiophene-3-carboxamide] | 7.37 | 7.96 | 6.83 | 6.27 | 5.75 | 6.28 |  |  |
| CC(C)(O)C(=O)Nc1sc(S(=O)(=O)c2ncc(C(F)(F)F)cc2F)cc1C(N)=O [Compound 410, 5-[[3-fluoro-5-(trifluoromethyl)-2-pyridyl]sulfonyl]-2-[(2-hydroxy-2-methyl-propanoyl)amino] thiophene-3-carboxamide] | 7.10 | 7.85 | 6.92 | 6.86 | 6.15 | 6.98 |  |  |
| CC(C)(O)C(=O)Nc1sc(S(=O)(=O)c2ncccc2C(F)(F)F)cc1C(N)=O [Compound 411, 2-[(2-hydroxy-2-methyl-propanoyl)amino]-5-[[3-(trifluoromethyl)-2-pyridyl]sulfonyl] thiophene-3-carboxamide] | 6.87 | 7.21 | 5.98 | 6.31 | 5.31 | 6.06 |  |  |
| CC(C)(O)C(=O)Nc1sc(S(=O)(=O)c2nc(C(F)(F)F)ccc2C(F)(F)F)cc1C(N)=O [Compound 412, 5-[[3,6-bis(trifluoromethyl)-2-pyridyl]sulfonyl]-2-[(2-hydroxy-2-methyl-propanoyl)amino] thiophene-3-carboxamide] | 7.95 | 8.45 | 8.13 | 7.45 | 7.02 | 7.95 |  |  |
